Results as given in patent publication US20260091147A1, “METHOD FOR DETECTING INNATE IMMUNE ACTION IN VIVO USING GPR84-PET” (The Board of Trustees of the Leland Standford Junior …, priority 2023, published 2026).

Tests used:
GPR84 [1] = biological target: T1, GPR84 (Mus musculus, UniProt Q8CIM5); assay: Ex vivo autoradiography of brain sections from LPS-treated mice; type: in vivo
T1 construct: tissue Jackson Laboratories; host or cells: female C57BL/6J mice (LPS, saline, EAE or naive): brain, spinal cord and peripheral organs
T1 sequence (Q8CIM5 whole entry): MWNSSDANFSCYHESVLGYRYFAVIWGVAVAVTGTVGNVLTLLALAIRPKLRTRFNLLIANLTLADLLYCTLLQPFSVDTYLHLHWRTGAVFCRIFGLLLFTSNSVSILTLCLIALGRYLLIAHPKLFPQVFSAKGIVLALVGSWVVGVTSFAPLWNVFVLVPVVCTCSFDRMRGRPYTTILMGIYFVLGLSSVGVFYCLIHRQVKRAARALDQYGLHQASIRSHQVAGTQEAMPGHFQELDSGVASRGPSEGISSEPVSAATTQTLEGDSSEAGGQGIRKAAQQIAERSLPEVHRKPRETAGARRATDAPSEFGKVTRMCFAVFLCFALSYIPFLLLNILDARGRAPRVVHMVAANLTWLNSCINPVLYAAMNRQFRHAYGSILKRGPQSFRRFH
Experimental: (§1) To determine KD of GLPG38, a competitive binding assay was performed using a membrane preparation from cells expressing GPR84-Gi in addition to [^3H]G9543, a known GPR84 antagonist. [^11C]GLPG38 was then radiosynthesized via [^11C]methylation of desmethyl precursor using [^11C]methyl iodide. Binding specificity of [^11C]GLPG38 was assessed using human GPR84-stably-expressing human embryonic kidney cells (HEK-293) versus control HEK-293 cells. For animal studies, sepsis was induced in female C57BL/6J mice via intraperitoneal injection of lipopolysaccharide (LPS, 10 mg/kg); vehicle-treated mice were injected with saline alone. Dynamic 60 min PET/CT imaging was performed 24 hr following LPS-administration using [^11C]GLPG38. Subsequently, mice were perfused with PBS to remove blood, and radioactive signal was assessed in CNS and peripheral tissues via gamma counting. Ex vivo autoradiography of sagittal mouse brain sections was conducted to obtain high resolution images of [^11C]GLPG38 binding. To investigate alterations in GPR84 mRNA expression, quantitative polymerase-chain reaction was performed using mouse brain tissue and human monocyte-derived macrophage cells stimulated with LPS 24 hr prior to RNA extraction.
Ex vivo Audoradiography Confirms ^11C-MGX-10S Specificity.

GPR84 [2] = biological target: T1, GPR84; assay: Ex vivo biodistribution (gamma counting) of GPR84 tracer in LPS- vs saline-treated mice; settings: LPS 10 mg/kg
Experimental: FIGS. 11A-11B show ex vivo biodistribution and autoradiography. […] At 20 min postinjection, animals were perfused with saline and tissues were collected, weighed, and gamma-counted. […] Statistical analysis was performed using “Unpaired t test with Welch correction”, *=P<0.05. […] Cb=cerebellum, Ctx=cortex, Str=striatum, H=hippocampus, Mb=midbrain, Ob=olfactory bulb, and BS=brain stem.
as §1, with “Binding specificity of [^11C]GLPG38 was assessed using human GPR84-stably-expressing human embryonic kidney cells (HEK-293) versus control HEK-293 cells. For animal studies, sepsis was induced in female C57BL/6J mice via intraperitoneal injection of lipopolysaccharide (LPS, 10 mg/kg); vehicle-treated mice were injected with saline alone.” left out

[3] = tested on: GPR84-positive immune cells; assay: PET/CT in B16F1 melanoma brain metastasis model, with or without anti-PD-1 and anti-CTLA-4; type: in vivo, mouse; settings: anti-PD-1 and anti-CTLA-4, day 9
Experimental: Six-to-eight-week-old female C57BL/6 mice were injected subcutaneously with 0.25×10^6 B16F1 melanoma cells on the right flank to generate extracranial tumors. After two days of extracranial tumor inoculation, 5×10^3 B16F1 melanoma cells were stereotactically injected into the striatum. Five days after intracranial tumor inoculation, mice were randomized into treatment (n=4) vs no treatment (n=4) groups based on the intracranial bioluminescence signals and monitored daily starting on day 5 for extracranial tumor volume changes. On days 5, 7 and 9 post-intracranial tumor inoculation, mice in the treatment group were treated with anti-PD-1 and anti-CTLA-4 (200 μg via intraperitoneal injection). T2-weighted MRI (Bruker) with a CryoProbe was performed on day 9 after intracranial tumor inoculation to identify brain tumor region of interest. Following MRI, mice underwent PET/CT imaging on the GNEXT PET/CT (Sofie). 100-125 μCi of [^18F]MGX-110S was injected for a 10-min static PET scan followed by CT. Mice were then perfused and organs of interest were dissected and analyzed via gamma counting. Region of interest analysis of the PET images was performed using a 3D volume drawing mode around the intracranial and extracranial tumors (Inveon Research Workspace).

GPR84 [4] = biological target: T1, GPR84; assay: Dynamic PET/CT in EAE vs naive mice, spinal cord time activity curves; type: in vivo
Experimental: 10-week old female C57BL/6 mice were induced with EAE using kits from Hooke Laboratories Inc. (cat #EK2110; Lawrence, MA). After anesthetizing mice with isoflurane gas (2.0-3.0% for induction and 1.5-2.5% for maintenance), they were inoculated with myelin oligodendrocyte glycoprotein (MOG35-55) in complete Freund's adjuvant (CFA) (0.2 mL per mouse, S.C.), followed by two pertussis toxin (PTX) injections (110 ng per injection, I.P., 1 and 24 h post-MOG injection). All mice were weighed and scored daily in the morning from day 8 onwards according to standard EAE scoring systems: 0, no paralysis; 1, loss of tail tone; 2, hind limb weakness or paresis; 3, hind limb paralysis; 4, complete hind leg and partial front leg paralysis. EAE mice were given supplemental food and fluids as necessary.
On days 15-16 after EAE induction, mice were catheterized and placed on the 4-mouse scanning bed of the Sofie GNEXT PET/CT scanner. Mice were injected with a radiotracer bolus of 130-170 μCi of ^18F-MGX-110S for a 60-min dynamic PET scan followed by CT. Scans were reconstructed from list mode into 19 frames (4×15 s, 4×60 s, 11×300 s) using OSEM3D reconstruction with 3 iterations and 24 subsets. Brain analysis was performed using a semi-automated brain atlas on VivoQuant software (2020 version) and spinal cords were manually drawn as previously described (JoVE).
Radiosynthesis of ^18F-MGX-110S was achieved by copper-mediated fluorination of a Bpin precursor in a mixture of dimethylacetamide at 130° C. for 20 min. C57BL/6 mice were induced with EAE using myelin oligodendrite glycoprotein (MOG35-55) emulsified in complete Freund's adjuvant and weighed/scored daily for disease severity. Expression of Gpr84 and Tspo was assessed in EAE (n=10-16 mice of low and high disease severities) versus naïve mice (n=5) using quantitative polymerase chain reaction (qPCR) of CNS tissues. In vivo kinetics, spatial distribution, and BBB permeability of ^18F-MGX-110S was assessed via 60-min dynamic PET/CT imaging of naïve C57BL/6 (n=3) and high scoring EAE mice (n=3). Ex vivo gamma counting of tissues of interest was conducted using naïve (n=8) and EAE (n=8) mice 60-min post-tracer injection. Lastly, EAE (n=3) and naïve (n=4) mice were injected with ^18F-GE180 and dissected 60 min later for gamma counting as a comparison.

cervical/thoracic spinal cord signal at 60 min, EAE mice (GPR84 [4]; high scoring EAE, n=3) [% ID/g]	lumbar spinal cord signal at 60 min, EAE mice (GPR84 [4]; high scoring EAE, n=3, p=0.0206) [% ID/g]	cervical/thoracic spinal cord signal at 60 min, naive mice (GPR84 [4]; n=3) [% ID/g]	lumbar spinal cord signal at 60 min, naive mice (GPR84 [4]; n=3) [% ID/g]	SMILES	tracer binding in LPS brain sections after pre-blocking with GLPG1205 (GPR84 [1]; GLPG1205 5 mg/kg ([11C]GLPG38) or 1 mg/kg (11C-MGX-10S))	tracer binding in brain sections, LPS-treated vs vehicle mice (GPR84 [1]; mouse, in vivo)	gamma counting signal in brain, LPS-injected vs vehicle mice (GPR84 [2]; p=0.0023)	gamma counting tracer binding in adipose tissue, LPS vs vehicle mice (GPR84 [2]; p=0.007)	PET signal in intracranial tumor, untreated vs immunotherapy-treated mouse [3]
				Cc1cc2c(cc1O[11CH3])CCn1c-2c(C)c(OC[C@@H]2COCCO2)cc1=O [[^11C]GLPG38]	substantial reduction	marked increase	increased signal in the brain	significant increase in tracer binding	
4.54±1.16	7.08±1.05	3.21±0.42	4.13±0.79	O=c1nc(OC[C@@H]2COCCO2)cc2n1CCc1cc([18F])ccc1-2 [^18F-MGX-110S]					significantly elevated signal
